Laboratory results taken from US10738062B2, “Chromane-substituted tetracyclic compounds and uses thereof for the treatment of viral diseases” (Merck Sharp & Dohme Corp., priority 2016, dated 2020).

Key:
Set-up in all cases: species or system Hepatitis C virus
[1] = test system: HCV replicon 1A Y93H; assay: Cell-based HCV replicon assay (Replicon Assay A), replicon 1AY93H; settings: read-out: EC50 replicon 1A Y93H; Replicon Assay A; replicon RNA by real time PCR, day 3
Procedure: (§1) To measure cell-based anti-HCV activity of compounds of the present invention, two complimentary assays were employed using various replicons. In the first assay (“Replicon Assay A”), replicon cells were seeded at 2000 cells/well in 384-well 384-well flat bottom tissue culture treated clear bottom plate (Corning 3707) in the presence of the test compound. Various concentrations of test compound, typically in 10 serial dilutions, were added to the assay mixture, with the starting concentration ranging from 333.3 nM to 1.667 nM. The final concentration of DMSO was 0.5%. Fetal bovine serum was 5%, in the assay media. Cells were harvested on day 3 by removing media and washing the cells with a suitable wash buffer. The cells were lysed with the addition of 1× Qiagen lysis buffer (Cat #1062731). The replicon RNA level was measured using real time PCR (TaqMan® EZ RT-PCR, Applied Biosystems 403028) with the following primers and probes: […]
(§2) Cyclophilin RNA was used as endogenous control and was amplified in the same reaction as NS5B (multiplex PCR). The real-time RT-PCR reactions were run on ABI PRISM 7900HT Sequence Detection System using the following program: 50° C. for 2 minutes, 60° C. for 30 minutes, 95° C. for 5 minutes, 40 cycles of 94° C. for 20 sec, 55° C. for 1 minutes.
(§3) The amount of HCV replicon RNA per cell was quantified using a linear regression curve for a known nanogram (ng) amount of HCV replicon total RNA. This was established by plotting the Cycle Threshold values (Ct) from the Neo probe and primer set versus the log (ng) for each HCV replicon total RNA standard. The amount of HCV RNA for each replicon sample was calculated by taking the sample's Ct value, minus the line intercept, divided by the slope of the line. Similarly, the amount of Cyclophilin mRNA per cell was also quantified using a linear regression curve for a known nanogram (ng) amount of HCV replicon total RNA. Again, this was established by plotting the Cycle Threshold values (Ct) from the Cyclophilin probe and primer set versus the log (ng) for each HCV replicon total RNA standard.
(§4) The real-time RT-PCR reactions were run on ABI PRISM 7900HT or Viia7 Sequence Detection System using the following program: 48° C. for 30 minutes, 95° C. for 10 minutes, 40 cycles of 95° C. for 15 sec, 60° C. for 1 minutes. The 50% effective concentration (EC50) was the drug concentration necessary to achieve an increase in the cycle threshold (CT) of 1 over the projected baseline CT.
(§5) Data was obtained for various compounds of the present invention using the methods described in the Example above, and is presented in the table immediately below. EC50 data for replicons 1A, 1AY93H and 2B were obtained using Replicon Assay A and EC50 data for replicon 1B was obtained using Replicon Assay B.

[2] = test system: HCV replicon 2B; assay: Cell-based HCV replicon assay (Replicon Assay A), replicon 2B; settings: read-out: EC50 replicon 2B; Replicon Assay A; replicon RNA by real time PCR, day 3
Procedure: as §1, §2, §3, §4, §5

[3] = test system: HCV replicon 1B; assay: Cell-based HCV replicon assay (Replicon Assay B), replicon 1B; settings: replicon RNA by real-time PCR, 3 days
Procedure: In an alternate assay (“Replicon Assay B”), 1000 cells were seeded per well in a 384-well collagen coated black plate from Greiner bio-one (Cat #781946) in 5% FBS. Inhibitors of this invention were added at 24 h post-seeding, and the plates were incubated for 3 days. Cells were subsequently lysed with Qiagen lysis buffer (Cat #1062731) to extract the RNA. HCV replicon RNA level was measured by real-time PCR using the RNA-to-CT kit from Applied Biosystem (Cat #4392656) and genotype-specific primers and probes. The amplicon was located within NS5B. […] (SEQ. ID NO. 2); the probe sequence was FAM-labeled […] (SEQ. ID NO. 3).
The real-time RT-PCR reactions were run on ABI PRISM 7900HT or Viia7 Sequence Detection System using the following program: 48° C. for 30 minutes, 95° C. for 10 minutes, 40 cycles of 95° C. for 15 sec, 60° C. for 1 minutes.
EC50 data for replicons 1A, 1AY93H and 2B were obtained using Replicon Assay A and EC50 data for replicon 1B was obtained using Replicon Assay B.

[4] = test system: HCV replicon 1A; assay: Cell-based HCV replicon assay (Replicon Assay A), replicon 1A; settings: replicon RNA by real time PCR, day 3
Procedure: as §1, §2, §3, §4, §5

Row | Compound | EC50 [1] | EC50 [2] | EC50 [3] | EC50 [4] | EC50 ([3]; Hepatitis C virus, 72 h) | EC50 ([4]; Hepatitis C virus, 72 h)
1 | COC(=O)NC(C(=O)N1CCC[C@H]1c1ncc(-c2ccc3c(c2)cc2n3C(c3ccc4c(c3)OC(C)CC4)Oc3cc(-c4cnc([C@@H]5CCCN5C(=O)[C@@H](NC(=O)OC)C(C)C)[nH]4)cc(F)c3-2)[nH]1)C1CCOC(C)(C)C1 (single isomer, unassigned) [Compound 64] | 60 pM | 26 pM | 4 pM | 2.7 pM |  | 
2 | CCO[C@H](C)[C@H](NC(=O)OC)C(=O)N1CCC[C@H]1c1ncc(-c2cc(F)c3c(c2)OC(c2ccc4c(c2)OCCC4)n2c-3cc3cc(-c4cnc([C@@H]5CCCN5C(=O)[C@@H](NC(=O)OC)C(C)C)[nH]4)ccc32)[nH]1 (single isomer, unassigned) [Compound 39] | 3380 pM | 910 pM |  |  | 1.4 pM | 1.7 pM
3 | COC(=O)NC(C(=O)N1[C@@H]2C[C@@H]2C[C@H]1c1ncc(-c2ccc3c(c2)cc2n3C(c3ccc4c(c3)OCCC4)Oc3cc(-c4cnc([C@@H]5CCCN5C(=O)[C@@H](NC(=O)OC)C(C)C)[nH]4)cc(F)c3-2)[nH]1)C1CCO[C@H](C)C1 (single isomer, unassigned) [Compound 82] | 3 pM | 4 pM |  | 1.7 pM | 2.1 pM | 
4 | COC(=O)NC(C(=O)N1CCC[C@H]1c1ncc(-c2ccc3c(c2)cc2n3C(c3ccc4c(c3)OCCC4)Oc3cc(-c4cnc([C@@H]5CCCN5C(=O)[C@@H](NC(=O)OC)C(C)C)[nH]4)cc(F)c3-2)[nH]1)C1CCOC(C)(C)C1 (single isomer, unassigned) [Compound 80] | 24 pM | 6 pM | 3.2 pM | 2.6 pM |  | 
5 | COC(=O)NC(C(=O)N1CCC[C@H]1c1ncc(-c2ccc3c(c2)cc2n3C(c3ccc4c(c3)OCCC4)Oc3cc(-c4cnc([C@@H]5CCCN5C(=O)[C@@H](NC(=O)OC)C(C)C)[nH]4)cc(C)c3-2)[nH]1)C1C[C@@H](C)O[C@@H](C)C1 (single isomer, unassigned) [Compound 86] | 28 pM | 7 pM |  | 3 pM | 2.7 pM | 
6 | COC(=O)N[C@H](C(=O)N1CCC[C@H]1c1ncc(-c2ccc3c(c2)OC(c2ccc4c(c2)CCCO4)n2c-3cc3cc(-c4cnc([C@@H]5C[C@H]6C[C@H]6N5C(=O)[C@@H](NC(=O)OC)C(C)C)[nH]4)ccc32)[nH]1)C(C)C (single isomer, unassigned) [Compound 52] | 454 pM | 1670 pM | 3.1 pM | 2.2 pM |  | 
7 | COC(=O)N[C@H](C(=O)N1CCC[C@H]1c1ncc(-c2ccc3c(c2)OC(c2ccc4c(c2)CCCO4)n2c-3cc3cc(-c4cnc([C@@H]5C[C@H]6C[C@H]6N5C(=O)[C@@H](NC(=O)OC)C(C)C)[nH]4)ccc32)[nH]1)C(C)C (single isomer, unassigned) [Compound 51] | 2130 pM | 4770 pM |  |  | 2.5 pM | 1.9 pM
8 | COC(=O)NC(C(=O)N1CCC[C@H]1c1ncc(-c2cc(F)c3c(c2)OC(c2ccc4c(c2)OCCC4)n2c-3cc3cc(-c4cnc([C@@H]5CCCN5C(=O)[C@@H](NC(=O)OC)C5CCOCC5)[nH]4)ccc32)[nH]1)C(C)(C)F (single isomer, unassigned) [Compound 88] | 9930 pM | 3110 pM | 2.6 pM | 14.9 pM |  | 
9 | COC(=O)NC(C(=O)N1CCC[C@H]1c1ncc(-c2ccc3c(c2)cc2n3C(c3ccc4c(c3)OCCC4)Oc3cc(-c4cnc([C@@H]5CCCN5C(=O)[C@@H](NC(=O)OC)C(C)C)[nH]4)cc(F)c3-2)[nH]1)C1CCO[C@H](C)C1 (single isomer, unassigned) [Compound 94] | 6 pM | 4 pM | 3.3 pM | 2.3 pM |  | 
10 | COC(=O)N[C@H](C(=O)N1CCC[C@H]1c1ncc(-c2cc(F)c3c(c2)OC(c2ccc4c(c2)OC(C)CC4)n2c-3cc3cc(-c4cnc([C@@H]5CCCN5C(=O)[C@@H](NC(=O)OC)C(C)C)[nH]4)ccc32)[nH]1)C(C)C (single isomer, unassigned) [Compound 14] | 119 pM | 163 pM | 2.6 pM | 1.8 pM |  | 
11 | COC(=O)N[C@H](C(=O)N1CCC[C@H]1c1ncc(-c2cc(F)c3c(c2)OC(c2ccc4c(c2)OCCC4)n2c-3cc3cc(-c4cnc([C@@H]5CCCN5C(=O)[C@@H](NC(=O)OC)C5CCOCC5)[nH]4)ccc32)[nH]1)C(C)C (single isomer, unassigned) [Compound 32] | 10 pM | 3 pM | 2.6 pM | 2.6 pM |  | 
12 | COC(=O)N[C@H](C(=O)N1CCC[C@H]1c1ncc(-c2ccc3c(c2)cc2n3C(c3ccc4c(c3)OCCC4)Oc3cc(-c4cnc([C@@H]5CCCN5C(=O)[C@@H](NC(=O)OC)C5CCOCC5)[nH]4)cc(F)c3-2)[nH]1)C(C)C (single isomer, unassigned) [Compound 34] | 8 pM | 5 pM | 3 pM | 2.1 pM |  | 
13 | CCO[C@H](C)[C@H](NC(=O)OC)C(=O)N1CCC[C@H]1c1ncc(-c2cc(F)c3c(c2)OC(c2ccc4c(c2)OCCC4)n2c-3cc3cc(-c4cnc([C@@H]5CCCN5C(=O)[C@@H](NC(=O)OC)C(C)C)[nH]4)ccc32)[nH]1 (single isomer, unassigned) [Compound 40] | 107 pM | 86 pM | 2.2 pM | 2.1 pM |  | 
14 | COC(=O)NC(C(=O)N1CCC[C@H]1c1ncc(-c2cc(F)c3c(c2)OC(c2ccc4c(c2)OCCC4)n2c-3cc3cc(-c4cnc([C@@H]5CCCN5C(=O)[C@@H](NC(=O)OC)C5CCOCC5)[nH]4)ccc32)[nH]1)C(C)(C)F (single isomer, unassigned) [Compound 90] | 47 pM | 157 pM | 3.2 pM | 1.7 pM |  | 
15 | COC(=O)N[C@H](C(=O)N1CCC[C@H]1c1ncc(-c2cc(F)c3c(c2)OC(c2ccc4c(c2)CCCO4)n2c-3cc3cc(-c4cnc([C@@H]5C[C@H]6C[C@H]6N5C(=O)[C@@H](NC(=O)OC)C(C)C)[nH]4)ccc32)[nH]1)C(C)C (single isomer, unassigned) [Compound 46] | 4130 pM | 7710 pM |  | 2.6 pM |  | 
16 | COC(=O)NC(C(=O)N1CCC[C@H]1c1ncc(-c2ccc3c(c2)cc2n3C(c3ccc4c(c3)OCCC4)Oc3cc(-c4cnc([C@@H]5CCCN5C(=O)[C@@H](NC(=O)OC)C(C)C)[nH]4)cc(F)c3-2)[nH]1)C1C[C@@H](C)O[C@H](C)C1 (single isomer, unassigned) [Compound 77] | 496 pM | 99 pM |  |  |  | 1.5 pM
17 | COC(=O)NC(C(=O)N1CCC[C@H]1c1ncc(-c2ccc3c(c2)cc2n3C(c3ccc4c(c3)OC(C)CC4)Oc3cc(-c4cnc([C@@H]5CCCN5C(=O)[C@@H](NC(=O)OC)C(C)C)[nH]4)cc(F)c3-2)[nH]1)C1C[C@@H](C)O[C@@H](C)C1 (single isomer, unassigned) [Compound 58] | 1090 pM | 403 pM |  | 2.2 pM |  | 
18 | COC(=O)NC(C(=O)N1[C@@H]2C[C@@H]2C[C@H]1c1ncc(-c2ccc3c(c2)cc2n3C(c3ccc4c(c3)OCCC4)Oc3cc(-c4cnc([C@@H]5CCCN5C(=O)[C@@H](NC(=O)OC)C(C)C)[nH]4)cc(F)c3-2)[nH]1)C1C[C@@H](C)O[C@@H](C)C1 (single isomer, unassigned) [Compound 67] | 391 pM | 607 pM |  |  |  | 1.2 pM
